In patent US20210228675A1, “HYPERTROPHIC SCAR INHIBITING COMPOSITION” (FUKUOKA UNIVERSITY, priority 2018, published 2021):
Read-outs that look alike come from different tables or passages of the source. Non-standard residues stand in square brackets, D forms with d. Residues, ends and D or L forms follow the SMILES beside them. Hyp = O=C(O)[C@@H]1C[C@@H](O)CN1

Assays:
[1] = Transfer of Pro-Hyp in blood after administration (LC-MS/MS); format: in vivo, C57 BL/6N mice; details: for Tmax: female, C57 BL/6N, mouse, blood, mice without wound, read-out: time at which blood concentration of Pro-Hyp reached a peak (converted)
Procedure: To C57 BL/6N mice (8 to 10 weeks of age, female) (N=4, per group) in which no wound site is formed, a physiological saline solution (500 nmol/200 μL) of the dipeptide consisting of the amino acid sequence of Pro-Hyp (which may be hereinafter referred to as simply “Pro-Hyp”) is administered intraperitoneally by injection (single administration) or a physiological saline solution (2500 nmol/200 μL) of Pro-Hyp was orally administered using a probe (single administration). After administration, blood was collected over time and Pro-Hyp occurred in blood was measured by LC-MS/MS method. The measurement conditions of LC-MS/MS method were as follows.
Collected blood was 2 times diluted in physiological saline and then centrifugation was performed under conditions at 20° C., 500×g, for 15 minutes. To the supernatant recovered after the centrifugation, 3 volumes of 100% ethanol were added. The supernatant to which 100% ethanol had been added was centrifuged at 20° C., 13000 rpm, for 15 minutes to perform deproteinization. Subsequently, the deproteinized sample was 10 times diluted in 50 mM ammonium bicarbonate and analyzed by LC-MS/MS. For the LC conditions, the analysis was conducted using CAPCELL PAK C1 UG120 10 mm×I.D. 2.0 mm (OSAKA SODA CO., LTD.) as a guard column and the column Hypersil Gold PFP 150 mm×I.D. 2.1 mm, 5 μm (manufactured by Thermo Fisher Scientific, Inc.). The analysis conditions were Mobile phase A MeOH, Mobile phase B a 2% formic acid aqueous solution containing 2 mM ammonium acetate, injection volume 5 μL, and gradient of Table 1 below.
The MS/MS was conducted using a tandem mass spectrometer (TSQ Vantage (manufactured by Thermo Fisher Scientific, Inc.)) under conditions of Method of ionization: Positive ESI, Spray voltage: 3000 V, Vaporizer: 300° C., Sheath gas: 30, Aux gas: 15, Capillary temperature: 250° C., MRM conditions: Parent Mass 229.1, Product Mass 70, Collision energy: 29 ev, S-Lens: 68.
Moreover, in the intraperitoneal administration, the Pro-Hyp concentration reached very high since it transferred in blood without gastrointestinal absorption. […] The C57 BL/6N mice in which no wound site was formed were used in this experiment, it is considered that a similar result is also obtained with Model-1 mice and Model-2 mice generated from the same line of mice.

[2] = test system: granulation tissue in wound site of abdominal wall circular incision model (Model-2) mice; assay: Formation of granulation tissue by administration of various polypeptides in Model-2 mice; format: in vivo, C57 BL/6N mice; details: Day 7; i.p. once a day for 7 days, doses of Table 7; control sparse; FIG. 9
Procedure: In this Example, aiming to examine granulation tissue formed in the peritoneum layer under tension, a novel model (Model-2) of granulation tissue formation that occurs between the peritoneum layers, which are under the minimal effect of the healing response from the skin layer and under direct influence of the tension of muscles, was generated in the following procedures. Female C57 BL/6N mice at 8 to 10 weeks of age were used. Anesthesia was introduced by administering 200 μL per animal (0.065 mg/g weight) of the anesthetic Somnopentyl (manufactured by Shering-Plough Corporation) to the peritoneal cavity. After the introduction of anesthesia, abdominal skin was cut open 1.5 cm along the midline using scissors for operations. […] Subsequently, the center part of the abdominal wall was picked up with round tip tweezers with an outside diameter of 3 mm, and the tissue in the central part of the abdominal wall was completely removed surgically in a circle with curved tip micro-operation scissors (Bottom panel in FIG. 1). After the incision, the positions 0.25 cm apart from the upper end and 0.25 cm apart from the bottom end of the incised skin (wound site) were sewed up to remove the tension of the skin. Subsequently, the skin was wrapped with Tegaderm and an underwear-shaped silicon protector was further put on to prevent the self-harm of the wound site. […]

[3] = oral, single administration 2500 nmol/200 μL

Row | Molecule | Tmax ([1]; ip, intraperitoneal, single administration 500 nmol/200 μL) [min] | Tmax [1, 3] [min] | time at which blood concentration decreased to a baseline level ([1]; intraperitoneal, single administration 500 nmol/200 μL) [h] | time at which blood concentration decreased to a baseline level [1, 3] [h] | collagen fibers in granulation tissue, Masson trichrome stain [2]
1 | O=C(O)[C@@H]1C[C@@H](O)CN1C(=O)[C@@H]1CCCN1 [Pro-Hyp] (H-Pro-[Hyp]-OH; N-terminus and C-terminus assumed) | 15 | 15 | 3 | 3 | –
2 | Hyp-Gly | – | – | – | – | the collagen fibers were dense and matured as the tissue
